These results are taken from US20240299353A1, “COMPOSITIONS AND METHODS FOR TREATING […] 5-MEO-DMT” (Alvarius Pharmaceuticals Ltd., priority 2021, published 2024).

For data set [1] the following is noted: humans, following insufflation; cited from earlier work.
The target of data set [2] is 5-HT1AR. The following applies: canonical signaling activity measured; read-out: affinity (Ki) for the 5-HT1AR subtype; cited from earlier work.
The conditions of data set [3]: acute administration in animals; cited from earlier work.
In data set [4] the test system is mGluR5. Kind of data set: Western blot of mGluR5 in brain regions, chronic cocaine ± 5-MeO-DMT. Type of data set: in vivo, Male Wistar rats. An excerpt: (§1) Male Wistar rats aged 7 weeks were acclimatized to the facility for 1 week prior to the beginning of the study. […] Animals were euthanized 23- or 119-hours following vehicle or 5-MeO-DMT administration.
Following euthanasia brain regions of interest were isolated. Briefly, the olfactory bulbs were removed before the brain was placed in a rat brain matrix (FIG. 2A). Sterile blades were inserted at positions 2 and 3 (FIG. 2B) to extract a coronal slice containing the Bregma+˜0.2-+˜2.2 coordinates (FIG. 2C). From this tissue slice a blunted 12 G needle was used to punch dissect the NAc and dorsal striatum (DS) (FIG. 2D-2E) identified using the rat brain atlas (Panxinos and Watson 2nd edition). […]
Determination of protein concentration—a bicinchoninic acid assay (BCA, ThermoFisher) was conducted to determine the total protein concentration in tissue lysates following manufacturer's instructions. […] For tissue lysates a 1:10 dilution was performed with cell lysis buffer to ensure absorbance values lay within the working range established by the standards. […] The plate was covered and incubated for 30 mins at 37° C. before absorbance was read at 562 nm on a plate reader (SpectraMax M3). The absorbance values were used to form a standard curve of known protein concentrations and protein concentration of samples were derived using the equation of the line. […]

For data set [5], the system named is ΔFosB. Kind of data set: Western blot of ΔFosB in brain regions, chronic cocaine ± 5-MeO-DMT. The class given is in vivo, Male Wistar rats.
Text: as §1
Following euthanasia brain regions of interest were isolated. Briefly, the olfactory bulbs were removed before the brain was placed in a rat brain matrix (FIG. 2A). Sterile blades were inserted at positions 2 and 3 (FIG. 2B) to extract a coronal slice containing the Bregma+˜0.2-+˜2.2 coordinates (FIG. 2C). From this tissue slice a blunted 12 G needle was used to punch dissect the NAc and dorsal striatum (DS) (FIG. 2D-2E) identified using the rat brain atlas (Panxinos and Watson 2nd edition). The PFC, hippocampus (Hip) and amygdala (Amyg) were then blunt dissected (FIG. 3A-3D). All regions were frozen in liquid nitrogen and stored at −80° C. until processed.
These treatment groups were used for the molecular assessment of addiction-linked markers.
Determination of protein concentration—a bicinchoninic acid assay (BCA, ThermoFisher) was conducted to determine the total protein concentration in tissue lysates following manufacturer's instructions. Briefly, bovine serum albumin (BSA) standards were prepared in a serial dilution (0-2.0 mg protein/ml) and 200 μl working reagent (50:1, reagent A: reagent B) was added to each of the standards and samples in a 96 well plate (Greiner). For tissue lysates a 1:10 dilution was performed with cell lysis buffer to ensure absorbance values lay within the working range established by the standards. All samples and standards were added in duplicate. The plate was covered and incubated for 30 mins at 37° C. before absorbance was read at 562 nm on a plate reader (SpectraMax M3). The absorbance values were used to form a standard curve of known protein concentrations and protein concentration of samples were derived using the equation of the line. All samples were standardized to the lowest protein concentration using distilled H20 (dH2O).
SDS-PAGE and Western Blotting—Following equalisation of protein concentrations, 6× sample loading buffer (15% SDS, 15% […], 50% glycerol, 0.01% bromophenol blue, […]) was added to each sample using a dilution factor of 1:5 of the total volumes before boiling at 100° C. for 5 mins. Samples were stored at −20° C. until use. One dimensional sodium-dodecyl-sulphate polyacrylamide gel electrophoresis (SDS-PAGE) was used for protein separation based on molecular weight. The percentage of acrylamide in the resolving or stacking gel was determined by the molecular weight of the protein of interest. In this instance all gels consisted of a 5% stacking gel and a 10% resolving gel with the exception of mGluR5, G9a (8%) and H3K9Me2 (12%). 20 μg of protein was loaded and resolved using SDS-PAGE. Gel electrophoresis was conducted at 80V while the protein was in the stacking gel, once it migrated to the resolving gel the voltage was increased to 120V and ran for 90 mins. Samples were transferred to a 0.45 μm polyvinylidene difluoride (PVDF) membrane (Analab) for 1 hour at 100V and blocked in 5% milk blocking solution made in tris-buffered saline containing tween®-20 (TBS-T, Sigma) for 90 mins. Primary antibodies (FIG. 5) were diluted in 5% BSA in TBS-T and incubated with membranes overnight at 4° C. or for 2 hours at room temperature. After incubation with primary antibodies the membranes were washed in TBS-T for 4×10 minutes before incubation with 1:2000 anti-rabbit and 1:2000 anti-mouse Alexa Fluro® conjugated secondary antibodies (Invitrogen) in 2% milk for 1 hour at room temperature. Membranes were washed in TBS-T for 4×10 minutes and in TBS for 1×10-minute wash. Proteins were visualized using Odyssey® infrared imaging system. Protein expression was quantified using Image Studio Lite (Version 5.2) and expression intensities were normalized to a house keeping protein, α-Tubulin or β-actin.
For orientation: Immunoblotting shows a protein as a band on a membrane.

Each structure is given as a SMILES string. A value given as a limit tells only on which side of the number the result lay.

In the case of `COc1ccc2[nH]cc(CCN(C)C)c2c1` [5-MeO-DMT, 5-methoxy-N,N-dimethyltryptamine], the end of effects in data set [1] was 60 to 70 min. Also, the peak of effects in data set [1] is 35 to 40 min. The start of effects in data set [1] was 3 to 4 min. The Ki in data set [2] was below 10 nM. In addition, in data set [3], the acute toxic signs result was “dose-dependently produce ataxia, mydriasis, head nodding, tremor, convulsion and shivering”. Further, the mGluR5 expression entry is “significant decrease in receptor expression” in data set [4] (PFC, 24 h, 20 mg/kg 5-MeO-DMT in saline treated animals) and “no change” in data set [4] (nucleus accumbens, 5-MeO-DMT, either tested concentration). Also, the ΔFosB expression entry in data set [5] (PFC, 24 h, cocaine alone or 5-MeO-DMT alone) is on record as “Neither treatment changes expression alone”; in data set [5] (PFC, 24 h, cocaine+10 mg/kg 5-MeO-DMT), “increases expression relative to 10 mg/kg 5-MeO-DMT alone”; in data set [5] (PFC, 24 h, cocaine+20 mg/kg 5-MeO-DMT (increase seen with 10 mg/kg)), “not replicated”; in data set [5] (amygdala, 24 h, 5-MeO-DMT alone), “no effect”; in data set [5] (amygdala, 24 h, cocaine+20 mg/kg 5-MeO-DMT), “normalized levels in the cocaine treated animals comparable to the control group”; in data set [5] (amygdala, 120 h, 20 mg/kg 5-MeO-DMT relative to control) it was “dose-dependent increase”. Also, the ΔFosB expression result in data set [5] (dorsal striatum, 24 h, 5-MeO-DMT alone) is reported as “does not regulate the expression”; in data set [5] (dorsal striatum, 24 h, cocaine+10 mg/kg 5-MeO-DMT relative to control) it was “significant increase in ΔFosB expression”; in data set [5] (dorsal striatum, 24 h, cocaine+20 mg/kg 5-MeO-DMT), “returns the cocaine-induced increase in ΔFosB to levels comparable with control”; in data set [5] (dorsal striatum, 120 h, irrespective of the treatment group) it was “no change in expression levels”; in data set [5] (nucleus accumbens, 24 h, cocaine+20 mg/kg 5-MeO-DMT), “expression levels remain elevated in the combo group relative to control”; in data set [5] (nucleus accumbens, 24 h, saline+10 mg/kg 5-MeO-DMT), “increased”. In addition, the ΔFosB expression result in data set [5] (nucleus accumbens, 24 h, saline+20 mg/kg 5-MeO-DMT) is “increased”; in data set [5] (nucleus accumbens, 120 h, 5-MeO-DMT alone), “does not persist to 120 hours”.

By Ki is commonly meant the equilibrium dissociation constant of an inhibitor or competing ligand from its target.
